From PubChem BioAssay (NCI) come the findings set out here.

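In this assay, cells in 96-well plates receive the compound at five concentrations for 48 hours. Endpoints are linearly interpolated between the surrounding concentrations. At the GI50, growth is halved. At the TGI there is no net growth.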

Holding throughout (assay): NCI anticancer screen, dose series, 48 h
The subject of assay [1] is SF-539 CNS.
Assay [2] has as its system IGROV1 ovarian.
The test system of assay [3] is NCI-H522 lung.
In assay [4] the test system is RXF 393 renal.
In assay [5] the test system is SR leukemia.
Assay [6] deals with MCF7 breast.
In assay [7] the test system is MDA-MB-231 breast.
Assay [8] deals with SNB-19 CNS.
For assay [9], the system named is T-47D breast.
In assay [10] the test system is ACHN renal.

For `COc1ccc2c(c1)/C(=C\c1c(C)nc3sc(C)cn13)C(=O)N2C`, the GI50 in assay [1] was 1.91 µM; in [2] it was 9.74 µM; in assay [3], 2.54 µM; in [4], 4.84 µM; in assay [5], 0.345 µM; in assay [6], 3.29 µM. In addition, the GI50 in assay [7] was 4.59 µM; in [8], 4.08 µM; in [9], 1.78 µM; in [10], 4.82 µM. The TGI in [1] is 6.63 µM; in assay [2], more than 100 µM; in assay [3], 8.44 µM; in [4], 48.3 µM; in assay [5], more than 100 µM; in assay [6], 35.4 µM. Also, the TGI in assay [7] was 65 µM; in [8], more than 100 µM; in assay [9], 5.35 µM; in assay [10], 62.7 µM.

As to `COc1ccc(-c2nn3ncccc3c2-c2ccnc(Nc3ccc(Cl)c(C(F)(F)F)c3)n2)cc1`, the GI50 is more than 18.9 µM in assay [1]; 9.48 µM in assay [2]; 12.4 µM in assay [3]; 5.66 µM in [4]; 17.6 µM in assay [5]; 6.53 µM in assay [6]. For the same compound, the GI50 in assay [7] is 8.56 µM; in [8], 16 µM; in assay [9] it was 7.21 µM; in [10], 10.1 µM. Further, the TGI was more than 25 µM in assay [1]; more than 25 µM in assay [2]; more than 25 µM in assay [3]; more than 24 µM in assay [4]; more than 25 µM in [5]; more than 25 µM in assay [6]. Besides, the TGI in assay [7], in [8], in assay [9] and in assay [10] was more than 25 µM throughout.

In the case of `C=CCn1c2c(c3ccccc3c1=O)C(=O)c1ccccc1-2`, the TGI in assay [1], in assay [2], in [3], in assay [4], in assay [5] and in [6] was more than 100 µM throughout. In addition, the TGI in [7], in assay [8], in [9] and in [10] was more than 100 µM in each case.

As for `COc1cc(-c2nn(-c3ccc(NC(=O)c4ccc(Cl)c(Cl)c4)cc3)cc2-c2ccncc2)ccc1Cl`, the GI50 in assay [1] was 2.85 µM; in assay [2] it was more than 100 µM; in assay [3] it was more than 100 µM; in assay [4] it was 1.5 µM; in assay [5], 18.7 µM; in assay [6] it was 5.53 µM. Also, the GI50 in assay [7] is 3.66 µM; in [8], 26.7 µM; in [9] it was 3.76 µM; in [10], 8.06 µM. Further, the TGI in assay [1] is more than 100 µM; in assay [2], more than 100 µM; in assay [3], more than 100 µM; in assay [4], 4.53 µM; in assay [5], more than 100 µM; in assay [6], more than 100 µM. For the same compound, the TGI in assay [7], in assay [8], in [9] and in assay [10] was more than 100 µM in each case.

Take `CCOC(=O)c1ccc(NC(=O)N2CC(C)OC(C)C2)cc1` (stereo not given): the GI50 in assay [1], in assay [2], in assay [3], in assay [4], in assay [5] and in assay [6] was more than 100 µM throughout. Further, the GI50 in [7], in assay [8], in assay [9] and in [10] was more than 100 µM each time. Further, the TGI in [1], in assay [2], in assay [3], in assay [4], in assay [5] and in [6] was more than 100 µM in each case. The TGI in assay [7], in [8], in [9] and in assay [10] was more than 100 µM in each case.

As to `O=C(CCCCCCSc1nc(-c2ccccc2)cc(-c2ccc(Cl)cc2)n1)NO`, the GI50 was 1.84 µM in assay [1]; 1.24 µM in [2]; 1.13 µM in [3]; 1.57 µM in [4]; 0.416 µM in [5]; 1.95 µM in [6]. In addition, the GI50 in [7] was 2.65 µM; in assay [8], 2.63 µM; in assay [9] it was 1.62 µM; in assay [10], 1.58 µM. Also, the TGI in [1] came to 5.31 µM; in assay [2], 6.5 µM; in assay [3], 8.05 µM; in assay [4], 3.89 µM; in assay [5] it was 4.67 µM; in assay [6] it was 13.3 µM. The TGI was 8.96 µM in assay [7], 11.2 µM in [8], 4.98 µM in [9] and 3.64 µM in assay [10].

Consider `COc1cc(O)c([C@@H]2C[C@H](CCc3ccc(O)cc3)O[C@H](c3ccc(O)cc3)C2)c(O)c1C(=O)/C=C/c1ccc(O)cc1`, for which the GI50 was 2.23 µM in assay [1]; 2.2 µM in assay [2]; 2.73 µM in assay [3]; 2.48 µM in assay [4]; 2.42 µM in assay [5]; 1.96 µM in assay [6]. Moreover, the GI50 is 2.5 µM in [7], 3.37 µM in assay [8], 2.93 µM in assay [9] and 2.43 µM in assay [10]. The TGI in assay [1] was 4.98 µM; in assay [2], 5.44 µM; in assay [3], 8.52 µM; in [4], 5.64 µM; in [5], 4.8 µM; in assay [6], 4.61 µM. For the same compound, the TGI was determined as 6.23 µM in assay [7], 10.6 µM in assay [8], 9.77 µM in [9] and 6.01 µM in assay [10].

`O=C(CN1CCN(c2ncccn2)CC1)Nc1ccc(Cl)cc1C(=O)c1ccccc1Cl`: the GI50 was more than 100 µM in [1]; 93.2 µM in assay [2]; 46.6 µM in assay [3]; more than 100 µM in [4]; 67.8 µM in assay [5]; 83.3 µM in assay [6]. The GI50 in assay [7] is more than 100 µM; in assay [8], more than 100 µM; in assay [9], 30.8 µM; in [10], more than 100 µM. Moreover, the TGI in [1], in assay [2], in assay [3], in assay [4], in assay [5] and in assay [6] was more than 100 µM throughout. For the same compound, the TGI in assay [7], in [8], in assay [9] and in assay [10] was more than 100 µM each time.

Take `N#Cc1c(Sc2ccccc2N)cccc1Sc1ccccc1N`: the GI50 in assay [1] was 69.7 µM; in assay [2], 50.9 µM; in [3], 51.7 µM; in [4] it was 72.8 µM; in assay [5] it was 56.8 µM; in assay [6], 27.9 µM. The GI50 is 49.8 µM in assay [7], 97.5 µM in assay [8], 51.7 µM in assay [9] and 35.2 µM in [10].
